Experimental data from patent US20150344466A1 (SUMITOMO CHEMICAL COMPANY, LIMITED, priority 2013, published 2015).

Assays:
Format in all cases: in vivo
Culex pipiens pallens [1] = experiment: Larvicidal test on Culex pipiens pallens, one day (Test Example 6); details: 24 h; last-instar larvae of Culex pipiens pallens; 3.5 ppm in water; one day later; read-out: death rate
Experimental: Each of the formulations of Compounds of Present Invention (39), (63), (71), (72), (92), (93), (95), (106), (150), (171), (170), (181), (182), (183), (187), (188), (189), (190), (191), (192), (200), (201), (201), (234), (246), (290) and (299) obtained in Formulation Example 15 was diluted with water, so as to have a concentration of the active ingredient of 500 ppm, to prepare a test drug solution.
20 last-instar larvae of Culex pipiens pallens were released into a liquid to which 0.7 ml of the above test drug solution was added to 100 ml of ion-exchanged water (a concentration of the active ingredient of 3.5 ppm). One day later, the life and death of the Culex pipiens pallens was examined, and the death rate was calculated. The death rate was calculated by the following equation.
Death rate (%)=(Number of dead insects/Number of tested insects)×100

Plutella xylostella = experiment: Foliar spray test on Plutella xylostella on cabbage (Test Example 10); details: 120 h, third instar larvae of Plutella xylostella on cabbage, 500 ppm spray 20 ml/cup, after five days, read-out: controlling value
Procedure, shortened: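 Cabbage at the third–fourth true-leaf stage sprayed with test solution at 20 ml/cup, dried, then infested with 10 third-instar larvae. Insects counted after five days; controlling value (%) calculated from treated and non-treated counts before treatment and at observation.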

[2] = test system: Adoxophyes orana fasciata; experiment: Spray test on Adoxophyes orana fasciata on apple seedling (Test Example 12); details: 168 h, first-instar larvae of Adoxophyes orana fasciata on apple seedling, 20 ml spray, seven days after spraying
Experimental: On the other hand, 20 ml of the test spray solution was each sprayed on an apple seedling (28 days after sowing, a tree height of about 15 cm) planted in a plastic cup. After the drug solution sprayed on the apple was air-dried, about 30 first-instar larvae of Adoxophyes orana fasciata were released. Seven days after spraying, the number of surviving Adoxophyes orana fasciata on the apple seedling was investigated, and the controlling value was calculated according to the following equation. Controlling value (%)={1−(Cb×Tai)/(Cai×Tb)}×100 In the equation, the symbols represent as follows. Cb: the number of insects in a non-treated section before treatment Cai: the number of insects in a non-treated section on observation Tb: the number of insects in a treated section before treatment Tai: the number of insects in a treated section on observation

Culex pipiens pallens [3] = experiment: Larvicidal test on Culex pipiens pallens, eight days (Test Example 7); details: 192 h; last-instar larvae of Culex pipiens pallens; 3.5 ppm in water; eight days later; read-out: death rate
Procedure, shortened: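 Twenty last-instar larvae placed in 100 ml ion-exchanged water containing test drug at 3.5 ppm active ingredient. Mortality scored after eight days; death rate = dead/tested × 100.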

Musca domestica [4] = experiment: Knockdown spray test on adult Musca domestica (Test Example 3); details: topical, 0.25 h, active ingredient 2.0% w/v, 0.5 ml sprayed, within 15 minutes, read-out: knockdown rate of the test insects within 15 minutes
Procedure, shortened: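 Ten adult house flies (5 male, 5 female) in a gauze-covered cup sprayed with 0.5 ml test solution from 30 cm at 0.9 kg/cm^2 inside a chamber, then removed. Knocked-down flies counted at 2, 5 and 15 min and expressed as % of insects tested.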

Spodoptera litura = experiment: Foliar spray test on Spodoptera litura on cabbage (Test Example 11); details: 96 h, fourth instar larvae of Spodoptera litura on cabbage, 500 ppm spray 20 ml/cup, after 4 days, read-out: controlling value
Procedure, shortened: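 Cabbage is grown in cups to the third–fourth true leaf and sprayed at 20 ml/cup. Once the spray has dried, 10 fourth-instar larvae are released per cup and survivors are counted after 4 days. Controlling value (%) is corrected using pre-treatment and observation counts in treated and untreated sections.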

Culex pipiens pallens [5] = experiment: Knockdown spray test on adult Culex pipiens pallens (Test Example 4); details: topical, 0.25 h, active ingredient 0.1% w/v, 0.5 ml sprayed, within 15 minutes, read-out: knockdown rate of the test insects within 15 minutes
Procedure, shortened: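 Knockdown counts were taken 2, 5 and 15 min after spraying and expressed as percent of the 10 adults tested. For the spray, 0.5 ml of solution was applied by spray gun (0.4 kg/cm^2) from 30 cm above a gauze-covered cup in a test chamber; the cup was taken out right after spraying.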

Blattella germanica [6] = experiment: Knockdown spray test on Blattella germanica, 2.0% w/v oil formulation (Test Example 1); details: topical, 0.25 h, active ingredient 2.0% w/v, 1.5 ml sprayed, within 15 minutes, read-out: knockdown rate of the test insects within 15 minutes
Procedure, shortened: (§1)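 Ten German cockroaches (5 males, 5 females) in a mesh-bottomed, butter-walled container were sprayed with 1.5 ml test solution from 60 cm at 0.42 kg/cm^2 inside a chamber.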

Aphis gossypii [7] = experiment: Foliar spray test on Aphis gossypii on cucumber (Test Example 8); details: 144 h, 500 ppm spray 20 ml/cup, Sir days after spraying, read-out: controlling value
Experimental: On the other hand, cucumber was planted in a polyethylene cup and grown until the first true leaf was spread, and about 20 Aphis gossypii were allowed to parasitize the cucumber. One day after, the test spray solution was sprayed to the cucumber at a ratio of 20 ml/cup. Sir days after spraying, the number of Aphis gossypii was investigated, and the controlling value was calculated according to the following equation. Controlling value (%)={1−(Cb×Tai)/(Cai×Tb)}×100 In the equation, the symbols represent as follows. Cb: the number of insects in a non-treated section before treatment Cai: the number of insects in a non-treated section on observation Tb: the number of insects in a treated section before treatment Tai: the number of insects in a treated section on observation

Blattella germanica [8] = experiment: Knockdown spray test on Blattella germanica, 0.1% w/v oil formulation (Test Example 2); details: topical, 0.25 h, active ingredient 0.1% w/v, 1.5 ml sprayed, within 15 minutes, read-out: knockdown rate of the test insects within 15 minutes
Procedure, shortened: as §1

Aphis gossypii [9] = experiment: Soil treatment test on Aphis gossypii on cucumber (Test Example 9); details: 168 h, 5 ml treatment solution in contact with soil, seven days after putting insects, read-out: controlling value
Experimental: On the other hand, cucumber was planted in a polyethylene cup with a plurality of small holes on the bottom and grown until the first true leaf was spread. A cup in which cucumber was planted was put in a plastic cup with 5 ml of the test treatment solution, so that the soil in the cup was in contact with the treatment liquid. After five days, about 20Aphis gossypii were allowed to parasitize the cucumber, and seven days after putting insects, the number of Aphis gossypii was investigated, and the controlling value was calculated according to the following equation. Controlling value (%)={1−(Cb×Tai)/([…])}×100 In the equation, the symbols represent as follows. Cb: the number of insects in a non-treated section before treatment Cai: the number of insects in a non-treated section on observation Tb: the number of insects in a treated section before treatment Tai: the number of insects in a treated section on observation

Musca domestica [10] = experiment: Filter paper/sucrose bait death rate test on Musca domestica (Test Example 5); details: female imagoes of Musca domestica, 0.7 ml on filter paper, after 24 hours
Procedure, shortened: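 Ten female imagoes were confined in a sealed cup over a filter paper treated with 0.7 ml of test solution and 30 mg sucrose bait. Mortality was scored at 24 h and expressed as percent of tested insects killed.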

| SMILES | pest or weed control at 3.5 ppm (Culex pipiens pallens [1]) [%] | pest or weed control at 500 ppm (Plutella xylostella) [%] | pest or weed control at 500 ppm [2] [%] | pest or weed control at 3.5 ppm (Culex pipiens pallens [3]) [%] | pest or weed control at 2 % strength (Musca domestica [4]) [%] | pest or weed control at 500 ppm (Spodoptera litura) [%] | pest or weed control at 0.1 % strength (Culex pipiens pallens [5]) [%] | pest or weed control at 2 % strength (Blattella germanica [6]) [%] | pest or weed control at 500 ppm (Aphis gossypii [7]) [%] | pest or weed control at 0.1 % strength (Blattella germanica [8]) [%] | pest or weed control at 500 ppm (Aphis gossypii [9]) [%] | pest or weed control at 500 ppm (Musca domestica [10]) [%] |
| --- | --- | --- | --- | --- | --- | --- | --- | --- | --- | --- | --- | --- |
| O=C(NCC1CCS(=O)(=O)C1)c1cc(COCc2ccccc2)on1 (centres unmarked) [(39), N-(1,1-dioxotetrahydrothiophen-3-ylmethyl)-5-benzyloxymethylisoxazole-3-carboxamide] | ≥ 90 | ≥ 90 | 100 | ≥ 90 | – | – | – | – | – | – | – | – |
| O=C(NCC1CCOCC1)c1cc(COCc2cccc(C(F)(F)F)c2)on1 [(65)] | – | ≥ 90 | 100 | – | ≥ 80 | ≥ 80 | ≥ 80 | ≥ 80 | ≥ 90 | – | – | – |
| O=C(NCC1CCOCC1)c1cc(COCc2cccc(SC(F)(F)F)c2)on1 [(81), N-(tetrahydropyran-4-ylmethyl)-5-(3-trifluoromethylthiobenzyloxymethyl)isoxazole-3-carboxamide] | – | ≥ 90 | – | – | – | ≥ 80 | ≥ 80 | – | ≥ 90 | – | – | – |
| O=C(NCC1CCOCC1)c1cc(COCc2ccc(OC(F)(F)F)cc2)on1 [(94), N-(tetrahydropyran-4-ylmethyl)-5-(4-trifluoromethoxybenzyloxymethyl)isoxazole-3-carboxamide] | – | ≥ 90 | – | – | – | – | ≥ 80 | – | ≥ 90 | ≥ 80 | – | – |
| O=C(NCC1CCOC1)c1cc(COCc2ccc3c(c2)CCCC3)on1 (centres unmarked) [(119), N-(tetrahydrofuran-3-ylmethyl)-5-(5,6,7,8-tetrahydronaphthalen-2-ylmethoxymethyl)isoxazole-3-carboxamide] | – | ≥ 90 | – | ≥ 90 | ≥ 80 | – | ≥ 80 | ≥ 80 | ≥ 90 | – | – | – |
| O=C(NCC1CCOC1)c1cc(COCC2Oc3ccccc3O2)on1 (centres unmarked) [(122), N-(tetrahydrofuran-3-ylmethyl)-5-(1,3-benzodioxolan-2-ylmethoxymethyl)isoxazole-3-carboxamide] | – | – | 100 | – | – | – | ≥ 80 | – | – | ≥ 80 | – | – |
| CC(OCc1ccccc1)c1cc(C(=O)NCC2CCOC2)no1 (centres unmarked) [(129), N-(tetrahydrofuran-3-ylmethyl)-5-[1-(benzyloxy)ethyl]isoxazole-3-carboxamide] | – | – | – | – | – | – | – | – | ≥ 90 | – | ≥ 90 | – |
| O=C(NCC1CCOC1)c1cc(COCC2CCCC2)on1 (centres unmarked) [(131), N-(tetrahydrofuran-3-ylmethyl)-5-cyclopentylmethoxymethylisoxazole-3-carboxamide] | – | – | – | – | ≥ 80 | – | ≥ 80 | ≥ 80 | ≥ 90 | – | – | – |
| O=C(NCC1CCOC1)c1cc(CCCCCCO)on1 (centres unmarked) [(144), N-(tetrahydrofuran-3-ylmethyl)-5-(6-hydroxyhexyl)isoxazole-3-carboxamide] | – | – | – | – | – | – | – | – | ≥ 90 | – | – | – |
| O=C(NCC1CCOC1)c1cc(CCCCCCCOc2ccc3ccccc3n2)on1 (centres unmarked) [(150), N-(tetrahydrofuran-3-ylmethyl)-5-[7-(2-quinolyloxy)heptyl]isoxazole-3-carboxamide] | ≥ 90 | ≥ 90 | 100 | ≥ 90 | ≥ 80 | – | ≥ 80 | – | – | – | – | ≥ 90 |
| O=C(NCC1CCOC1)c1cc(C(F)c2ccccc2)on1 (centres unmarked) [(154), N-(tetrahydrofuran-3-ylmethyl)-5-(1-fluoro-1-phenylmethyl)isoxazole-3-carboxamide] | – | – | – | – | – | – | – | – | ≥ 90 | – | ≥ 90 | – |
| O=C(NCC1CCOC1)c1noc(COCc2ccccc2)c1CF (centres unmarked) [(170), N-(tetrahydrofuran-3-ylmethyl)-(5-benzyloxymethyl-4-fluoromethyl)isoxazole-3-carboxamide] | ≥ 90 | ≥ 90 | 100 | ≥ 90 | – | – | ≥ 80 | – | – | ≥ 80 | – | – |
| O=C(NCC1CCOC1)c1noc(COCc2ccccc2)c1C(F)F (centres unmarked) [(171), N-(tetrahydrofuran-3-ylmethyl)-(5-benzyloxymethyl-4-difluoromethyl)isoxazole-3-carboxamide] | ≥ 90 | ≥ 90 | 100 | ≥ 90 | – | ≥ 80 | ≥ 80 | – | – | – | – | – |
| O=C(NCC1CCOCC1)c1cc(COc2ccc(Cl)c(Cl)c2)on1 [(183)] | ≥ 90 | – | 100 | ≥ 90 | – | ≥ 80 | ≥ 80 | – | – | – | – | – |
| O=C(NCC1CCOC1)c1cc(CCCc2ccc3c(c2)OCO3)on1 (centres unmarked) [(234), N-(tetrahydrofuran-3-ylmethyl)-5-[3-(1,3-benzodioxolan-5-yl)propyl]isoxazole-3-carboxamide] | ≥ 90 | ≥ 90 | 100 | – | – | ≥ 80 | ≥ 80 | – | – | ≥ 80 | – | ≥ 90 |
